From patent US20200129597A1, “MODULATION OF FACTOR Xa INHIBITOR-MEDIATED BLOOD LOSS BY PARTIAL AND TRANSIENT ADMINISTRATION OF ANTIDOTE” (Portola Pharmaceuticals, Inc., priority 2012, published 2020)
Where “and” joins values, the source holds several entries; their conditions need not be identical. Equal entries are not always repeated.

How the values were obtained:
blood loss [1] = test: Rat tail transection treatment model, r-Antidote given after bleeding initiated; type: in vivo; details: enoxaparin-treated group
Procedure: In a pilot study using this antidote treatment model, anesthetized rats were intravenously (IV) administered either vehicle or enoxaparin (4.5 mg/kg, IV bolus) followed by tail transection at 5 min post-dosing.
Anesthetized rats were administered enoxaparin (4.5 mg/kg) or vehicle by I.V. bolus injection followed by tail transection (2 mm from tip) 5 minutes later. […] The tip of the tail was placed in physiologic saline at 37° C. and blood collected for an additional 45 minutes after tail transection. Blood was lysed by diluting in water and freezing at −80° C. overnight. […] Anti-fXa activity of enoxaparin was measured using a modified chromogenic LMW heparin kit. Tissue factor (TF)-initiated thrombin generation was carried out in human plasma using a fluorogenic thrombin substrate by measurement of change of relative fluorescence unit (RFU) for 10 min following initiation of the reaction.

blood loss [2] = test: Rat tail transection model, r-Antidote bolus plus infusion after enoxaparin or fondaparinux; type: in vivo; details: fondaparinux 25 mg/kg; protamine 0.9 mg/rat IV bolus; p=0.39
Procedure: Enoxaparin (4.5 mg/kg) or vehicle was dosed by IV bolus over 5 min, followed by treatment with vehicle or two different doses of r-Antidotc (2 mg/rat bolus plus 2 mg/hr infusion and 4 mg/rat bolus plus 4 mg/hr infusion) starting at 10 min. […] Protamine was dosed as an IV bolus only (0.9 mg/rat). […] Anti-fXa activity was normalized to the activity of Treat-II at 5 min time point. *** P-value (Treat-III vs. Treat-II)≤0.0001.
The collected blood samples were processed by freezing the samples at −80° C. to lyse erythrocytes. Hemoglobin concentration and corresponding blood volume were quantified spectrophotometrically (Absorbance at 490 nm) from a standard curve constructed with known volumes of blood.

[3] = Total and unbound fXa inhibitor plasma concentration in rats; type: in vivo, rat; details: for fraction unbound: intravenous
Procedure: Total rivaroxaban plasma concentration at different time points from FIG. 10A was determined by LC-MS (solid line).
Similar experiments were carried out using betrixaban and apixaban infusion into anesthetized rats (FIG. 10B and FIG. 10C).
Blood sampling catheter patency was maintained by slow infusion of normal saline. Serial blood samples were obtained during the experimental time course. Total fXa inhibitor concentration was measured by HPLC with tandem mass spectrometry.

[4] = Phase 2 trial: anti-fXa activity (chromogenic assay) after apixaban and r-Antidote; type: in vivo, human; details: apixaban 5 mg bid (11 doses)
From the text: (§1) Pharmacodynamic and safety data are collected through Day 48 and PK through Day 10. A chromogenic assay was used to determine anti-fXa activity.

[5] = Phase 2 trial: plasma concentrations; details: apixaban 5 mg bid
From the text: as §1

blood loss [6] = test: Mouse tail transection blood loss model; type: in vivo; details: for blood loss: 15 min, mean±SD, rivaroxaban 50 mg/kg oral, ASA ~100 mg/kg/day 5 days, treatment as labelled
Procedure: Mice (n=5-8/group) were first dosed orally with vehicle or aspirin at ˜100 mg/kg/day for 5 days. Rivaroxaban (50 mg/kg) or vehicle (5 mL/kg) was then dosed orally.
For the mouse tail transection blood loss model, mice (male, C57BL/6, Charles River) were first treated with aspirin at ˜100 mg/kg/day for 5 days via drinking water.

blood loss [7] = test: Rabbit liver laceration blood loss model; type: in vivo; details: for increase in blood loss compared with vehicle: rivaroxaban 1 mg/kg IV bolus
Procedure: Rivaroxaban (1 mg/kg) or vehicle was dosed by IV bolus over 2 minutes via marginal ear vein catheter. […] Riva=Rivaroxaban; g=gram
(§2) Anesthetized rabbits were administered vehicle or 1 mg/kg rivaroxaban via IV bolus injection. […] Total rivaroxaban concentration in plasma was measured by LC-MS/MS. […] Anti-fXa activity was measured using a modified chromogenic LMW heparin kit. PT and aPTT was measured using commercial reagents (HemosIL).
Anesthetized rabbits were administered vehicle or 1 mg/kg rivaroxaban via IV bolus injection. […] As in the rodent model, total and free rivaroxaban concentration in plasma, anti-fXa activity and PT and activated partial thromboplastin times (aPTT) was measured.
(§3) Rivaroxaban (1 mg/kg) or vehicle was dosed to anesthetized rabbits by IV bolus over 2 minutes via marginal ear vein catheter. […] Serial blood samples were collected at 0, 30, 35, and 50 minutes post rivaroxaban. Measurements included reduction in blood loss, decrease in unbound rivaroxaban in the plasma using equilibrium dialysis method, anti-fXa activity, PT and aPTT. The method for measuring PT is described previously in Example 6.

prothrombin time (PT) [8] = test: Prothrombin time in rabbit liver laceration model; type: in vivo; details: for prolongation of PT: rivaroxaban 1 mg/kg, 30 min time point
Procedure: as §2
(§4) For human in vitro and rat ex vivo experiments, PT was measured using MLA Electra 800 automatic coagulation timer. Innovin was automatically dispensed to plasma samples (100 μL) per manufacturer's instructions. […] For rabbit experiments, PT and aPTT were measured using a Beckman Coulter ACL Elite instrument with HemosIL reagents (available commercially from Instrumentation Laboratories). Whole blood INR (International Normalized Ratio) for animal samples were measured by Hemchron Jr. Signature Cartridges (International Technidyne Corporation) according to manufacturer's instructions.
as §3

[9] = test system: activated partial thromboplastin time (aPTT); test: Activated partial thromboplastin time in rabbit liver laceration model; type: in vivo; details: for prolongation of aPTT: rivaroxaban 1 mg/kg, 30 min time point
Procedure: as §2, §4, §3

[10] = Total and free rivaroxaban concentration in rabbit plasma; type: in vivo; details: for concentration at 30 min: male, NZW, rabbit, plasma
Procedure: as §2, §3

prothrombin time (PT) [11] = test: Prothrombin time in human plasma in vitro; type: biochemical; details: rivaroxaban 1 μM
Procedure: as §4

[12] = Total rivaroxaban concentration in mouse plasma; details: following r-Antidote administration (Treat-V)
[13] = upon administration of r-Antidote
[14] = 30 minutes post rivaroxaban (before treatment)

enoxaparin
share of blood loss occurring within first 10 min prior to treatment (blood loss [1]): ~26% | total blood loss as share of animal's total blood volume (blood loss [1]): about 5%

Protamine
effect on fondaparinux anticoagulation (blood loss [2]): no statistically significant effect

COc1ccc(NC(=O)c2ccc(C(=N)N(C)C)cc2)c(C(=O)Nc2ccc(Cl)cn2)c1 [betrixaban]
fraction unbound ([3]; male, SD, rat, plasma): 0.003 | concentration at 30 min ([3]; male, SD, rat, plasma, iv): 200 nM | fraction unbound at 30 min ([3]; male, SD, rat, plasma, iv): 0.41 | concentration at 30 min [3, 13]: 2000 nM

COc1ccc(-n2nc(C(N)=O)c3c2C(=O)N(c2ccc(N4CCCCC4=O)cc2)CC3)cc1 [apixaban]
fraction unbound ([3]; male, SD, rat, plasma): 0.0005 | concentration at 30 min ([3]; male, SD, rat, plasma, iv): 1400 nM | fraction unbound at 30 min ([3]; male, SD, rat, plasma, iv): 0.015 | concentration at 30 min [3, 13]: 4200 nM | time of peak anti-fXa activity post last apixaban dose [4]: 3 h | mean apixaban plasma concentration [5]: 474 nM

O=C(NC[C@H]1CN(c2ccc(N3CCOCC3=O)cc2)C(=O)O1)c1ccc(Cl)s1 [rivaroxaban]
blood loss (blood loss [6]): 216 ± 222 µL | increase in blood loss (blood loss [6]; ASA-treated mice (~100 mg/kg/day, 5 days), single oral Riva 50 mg/kg, Riva+ASA vs. ASA): 3.4 fold | blood loss due to rivaroxaban anticoagulation as share of total blood volume (blood loss [7]; rivaroxaban 1 mg/kg): approximately 10% | increase in blood loss compared with vehicle (blood loss [7]): 3.2 fold and > 3 fold | increase in blood loss compared with vehicle (blood loss [7]; listed as Rivaroxaban): 3.2 fold | blood loss (blood loss [7]; rivaroxaban group, 15 min collection): 22.7±9.3 grams | Prothrombin Times (prothrombin time (PT) [8]; 0 minutes post rivaroxaban): 6.2 ± 0.4 s | Prothrombin Times (prothrombin time (PT) [8]; [14]): 15.8 ± 1.5 s | Prothrombin Times (prothrombin time (PT) [8]; 35 minutes post rivaroxaban): 15.0 ± 1.6 s | Prothrombin Times (prothrombin time (PT) [8]; 50 minutes post rivaroxaban): 13.8 ± 1.3 s | prolongation of PT (prothrombin time (PT) [8]): 2.3 fold and 2.5 fold | prolongation of PT (prothrombin time (PT) [8]; listed as Rivaroxaban): 2.3 fold | Activated Partial Thromboplastin Times ([9]; 0 minutes post rivaroxaban): 28 ± 5 s | Activated Partial Thromboplastin Times [9, 14]: 49 ± 8 s | Activated Partial Thromboplastin Times ([9]; 35 minutes post rivaroxaban): 48 ± 8 s | Activated Partial Thromboplastin Times ([9]; 50 minutes post rivaroxaban): 48 ± 8 s | prolongation of aPTT [9]: 1.9 fold and 1.8 fold | prolongation of aPTT ([9]; listed as Rivaroxaban): 1.9 fold | free (non-protein bound) fraction of rivaroxaban in plasma ([10]; after r-Antidote 75 mg/rabbit): < 0.5% | free (non-protein bound) fraction of rivaroxaban in plasma ([10]; before r-Antidote): 26% | concentration at 30 min ([10]; intravenous, 1 mg/kg, just prior to treatment, dose group as labelled): 1200 nM | concentration at 30 min ([10]; 30 min time point, 1 mg/kg IV): 1650 nM | effect on prothrombin time (prothrombin time (PT) [11]): prolongation of prothrombin time | concentration at 30 min ([3]; male, SD, rat, plasma, iv): 1400 nM | fraction unbound at 30 min ([3]; male, SD, rat, plasma, iv): 0.022 | concentration at 30 min [3, 13]: 1900 nM | increase of total rivaroxaban concentration in plasma [12]: 7.8 fold

CC(=O)Oc1ccccc1C(=O)O [aspirin]
blood loss (blood loss [6]): 118 ± 71 µL
